Source: PubChem BioAssay (NCI)
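Values below derive from 48-hour exposures of cells grown in 96-well plates, with endpoints linearly interpolated between the two concentrations bracketing the appropriate inhibition level. TGI: total growth inhibition.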

Tests used:
Assay in all cases: NCI tumour cell line growth inhibition, 48 h
NCI-H226 lung = system: NCI-H226 lung
TK-10 renal = system: TK-10 renal
EKVX NSCLC = system: EKVX NSCLC
OVCAR-4 ovarian = system: OVCAR-4 ovarian
OVCAR-3 ovarian = system: OVCAR-3 ovarian
SF-295 CNS = system: SF-295 CNS
OVCAR-8 ovarian = system: OVCAR-8 ovarian
DU-145 prostate = system: DU-145 prostate
UACC-257 melanoma = system: UACC-257 melanoma
NCI-H460 lung = system: NCI-H460 lung
MDA-MB-435 = system: MDA-MB-435
SK-MEL-5 melanoma = system: SK-MEL-5 melanoma
SK-MEL-28 melanoma = system: SK-MEL-28 melanoma
T-47D breast = system: T-47D breast
SW-620 colon = system: SW-620 colon
SN12C renal = system: SN12C renal
SNB-19 CNS = system: SNB-19 CNS
IGROV1 ovarian = system: IGROV1 ovarian

Row | SMILES | TGI (NCI-H226 lung) | TGI (TK-10 renal) | TGI (EKVX NSCLC) | TGI (OVCAR-4 ovarian) | TGI (OVCAR-3 ovarian) | TGI (SF-295 CNS) | TGI (OVCAR-8 ovarian) | TGI (DU-145 prostate) | TGI (UACC-257 melanoma) | TGI (NCI-H460 lung) | TGI (MDA-MB-435) | TGI (SK-MEL-5 melanoma) | TGI (SK-MEL-28 melanoma) | TGI (T-47D breast) | TGI (SW-620 colon) | TGI (SN12C renal) | TGI (SNB-19 CNS) | TGI (IGROV1 ovarian)
1 | C=C1CC(C)(COc2cc(=O)oc3ccccc23)OC1=O (stereo not drawn) | 29.1 µM | 5.16 µM | 29.4 µM | 16.9 µM | 16.7 µM | 30.6 µM | 24.2 µM | 19 µM | 6.1 µM | 27.5 µM | 17.7 µM | 14.7 µM | 10.8 µM | 13.8 µM | 11.4 µM | 21.4 µM | 35.5 µM | 12.5 µM
2 | CC(=O)OCC1OC(OC(C)=O)C(Nc2ncc(-c3ccc(C)cc3)s2)C(OC(C)=O)C1OC(C)=O (stereo not drawn) | 50.4 µM | 32.9 µM | 27.6 µM | 35.4 µM | 35.1 µM | 76.3 µM | 69.9 µM | > 100 µM | 49.1 µM | 40.7 µM | 30.3 µM | 29.2 µM | 31.2 µM | 48.8 µM | 45.4 µM | 40.8 µM | 52.9 µM | 36.4 µM
3 | N#CCC1C2CC3C(C2=O)C13 (stereo not drawn) | > 100 µM | > 100 µM | > 100 µM | > 100 µM | > 100 µM | > 100 µM | > 100 µM | > 100 µM | > 100 µM | > 100 µM | > 100 µM | > 100 µM | > 100 µM | > 100 µM | > 100 µM | > 100 µM | > 100 µM | > 100 µM
4 | [N-]=[N+]=CC(=O)OCC1NC(=O)C(COC(=O)C=[N+]=[N-])NC1=O (stereo not drawn) | > 100 µM | > 100 µM | > 100 µM | > 100 µM | > 100 µM | > 100 µM | > 100 µM | > 100 µM | > 100 µM | > 100 µM | > 100 µM | – | > 100 µM | > 100 µM | > 100 µM | > 100 µM | > 100 µM | > 100 µM
5 | CCC(c1ccc(OC)cc1)C1NC(=S)NC1=O (stereo not drawn) | > 50 µM | > 50 µM | > 50 µM | > 50 µM | > 50 µM | > 50 µM | > 50 µM | > 50 µM | > 50 µM | > 50 µM | > 50 µM | > 50 µM | > 50 µM | > 50 µM | > 50 µM | > 50 µM | > 50 µM | > 50 µM
6 | CCCn1c(=O)c2nn3c(=O)n(CCC)c(=O)c3nn2c1=O | > 100 µM | > 100 µM | > 100 µM | > 100 µM | > 100 µM | > 100 µM | > 100 µM | > 100 µM | > 100 µM | > 100 µM | > 100 µM | > 100 µM | > 100 µM | > 100 µM | > 100 µM | > 100 µM | > 100 µM | > 100 µM
7 | CCN(CC)C(=S)N/N=C/c1cc(OC)ccc1O | 25.5 µM | > 100 µM | > 100 µM | > 100 µM | > 100 µM | > 100 µM | > 100 µM | > 100 µM | > 100 µM | 14.3 µM | > 100 µM | 70.5 µM | > 100 µM | > 100 µM | > 100 µM | 90.6 µM | > 100 µM | > 100 µM
8 | COc1cc2c(cc1O)Cc1c-2[n+](C)cc2cc(OC)c(OC)cc12 | > 100 µM | > 100 µM | > 100 µM | > 100 µM | > 100 µM | > 100 µM | > 100 µM | > 100 µM | > 100 µM | > 100 µM | > 100 µM | 23.3 µM | > 100 µM | > 100 µM | > 100 µM | > 100 µM | > 50 µM | > 100 µM
9 | Cc1cccc(N=C/C=C(\Cl)c2ccc3ccccc3c2)c1 | > 69.3 µM | 50.8 µM | > 100 µM | 41.2 µM | 32.3 µM | > 58.7 µM | 43 µM | 36.9 µM | 39.1 µM | > 80.9 µM | 39.8 µM | 37.1 µM | 63.6 µM | 37.2 µM | > 66.5 µM | 41.1 µM | 33 µM | > 60.3 µM
10 | COc1ccc(-n2c(Cn3nnc(-c4cccnc4)n3)nn(C3OC(COC(=O)c4ccccc4)C(OC(=O)c4ccccc4)C3OC(=O)c3ccccc3)c2=S)cc1 (stereo not drawn) | 36.1 µM | > 100 µM | > 100 µM | > 100 µM | > 100 µM | > 100 µM | > 100 µM | > 100 µM | > 100 µM | > 100 µM | > 100 µM | > 100 µM | > 100 µM | > 100 µM | > 100 µM | > 100 µM | > 100 µM | > 100 µM
11 | CC(=O)N=c1ccc2nc(N)nn(O)c-2c1 | > 100 µM | > 100 µM | > 100 µM | > 100 µM | > 100 µM | > 100 µM | > 100 µM | > 100 µM | > 100 µM | > 100 µM | > 100 µM | > 100 µM | > 100 µM | > 100 µM | > 100 µM | > 100 µM | > 100 µM | > 100 µM
12 | Cn1nc(-c2ccccc2)c2c(-c3ccccc3)c3cc(Cl)ccc3nc21 | > 100 µM | > 100 µM | > 100 µM | > 100 µM | > 100 µM | > 100 µM | > 100 µM | > 100 µM | > 100 µM | > 100 µM | > 100 µM | > 100 µM | > 100 µM | > 100 µM | > 100 µM | > 100 µM | > 100 µM | > 100 µM
13 | CN1C(C)(C)CC(=O)C(Br)C1(C)C (stereo not drawn) | > 100 µM | > 100 µM | > 100 µM | > 100 µM | > 100 µM | > 100 µM | > 100 µM | > 100 µM | > 100 µM | > 100 µM | > 100 µM | > 100 µM | > 100 µM | > 100 µM | > 100 µM | > 100 µM | > 100 µM | > 100 µM
